# Data: patent US9499476B2, “Acetamide stereoisomer” (SUNOVION PHARMACEUTICALS INC., priority 2007, dated 2016)
# Marks after values point to notes of the source that are not given here.
# Experiments:
# [1] = target: T1, adrenergic β2 receptors (Cavia porcellus, UniProt Q8K4Z4); assay: β2 adrenergic functional activity, relaxation of spontaneous tone of isolated trachea; design: species or system Dunkin Hartley Guinea pigs
# T1 construct: from tissue; host or cells: isolated trachea, Dunkin Hartley guinea pig
# T1 sequence (Q8K4Z4 whole entry): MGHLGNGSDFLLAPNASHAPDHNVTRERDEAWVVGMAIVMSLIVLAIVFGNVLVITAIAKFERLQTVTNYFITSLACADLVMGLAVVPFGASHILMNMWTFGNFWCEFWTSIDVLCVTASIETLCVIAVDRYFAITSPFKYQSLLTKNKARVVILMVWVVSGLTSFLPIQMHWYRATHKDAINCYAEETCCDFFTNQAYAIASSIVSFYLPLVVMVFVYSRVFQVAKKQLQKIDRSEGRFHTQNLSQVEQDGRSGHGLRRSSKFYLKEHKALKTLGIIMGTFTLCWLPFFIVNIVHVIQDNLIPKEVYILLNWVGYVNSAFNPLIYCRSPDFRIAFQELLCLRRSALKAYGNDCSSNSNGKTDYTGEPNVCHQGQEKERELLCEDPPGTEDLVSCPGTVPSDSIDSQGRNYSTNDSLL
# [2] = target: adrenergic β1 receptors (Cavia porcellus, UniProt H0W3H1); assay: β1 adrenergic functional activity, positive chronotropic effect in isolated right atria; design: species or system Dunkin Hartley Guinea pigs; conditions: read-out: increase in heart rate, β1 functional assay
# adrenergic β1 receptors, sequence (H0W3H1 1-470): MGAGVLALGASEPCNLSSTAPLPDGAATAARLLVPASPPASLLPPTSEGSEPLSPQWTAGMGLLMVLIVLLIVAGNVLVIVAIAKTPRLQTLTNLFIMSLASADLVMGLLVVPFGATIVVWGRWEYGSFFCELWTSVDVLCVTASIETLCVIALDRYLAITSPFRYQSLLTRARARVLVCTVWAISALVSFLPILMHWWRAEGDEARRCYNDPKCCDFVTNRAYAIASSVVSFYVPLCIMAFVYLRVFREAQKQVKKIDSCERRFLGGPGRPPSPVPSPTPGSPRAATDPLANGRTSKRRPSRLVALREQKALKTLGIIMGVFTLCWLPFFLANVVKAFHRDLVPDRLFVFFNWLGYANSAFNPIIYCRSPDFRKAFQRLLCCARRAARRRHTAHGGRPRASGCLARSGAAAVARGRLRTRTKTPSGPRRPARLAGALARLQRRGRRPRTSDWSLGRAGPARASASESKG
# Text: β1 and β2 Adrenergic Activity (Functional)
# The concentration that gives 50% maximal effect is the EC50.
# [3] = target: T2, human recombinant β1 receptors (Homo sapiens, UniProt P08588); assay: β1 radioligand binding assay
# T2 construct: expressed in transfected cells; host or cells: CHO cells
# T2 sequence (P08588 whole entry): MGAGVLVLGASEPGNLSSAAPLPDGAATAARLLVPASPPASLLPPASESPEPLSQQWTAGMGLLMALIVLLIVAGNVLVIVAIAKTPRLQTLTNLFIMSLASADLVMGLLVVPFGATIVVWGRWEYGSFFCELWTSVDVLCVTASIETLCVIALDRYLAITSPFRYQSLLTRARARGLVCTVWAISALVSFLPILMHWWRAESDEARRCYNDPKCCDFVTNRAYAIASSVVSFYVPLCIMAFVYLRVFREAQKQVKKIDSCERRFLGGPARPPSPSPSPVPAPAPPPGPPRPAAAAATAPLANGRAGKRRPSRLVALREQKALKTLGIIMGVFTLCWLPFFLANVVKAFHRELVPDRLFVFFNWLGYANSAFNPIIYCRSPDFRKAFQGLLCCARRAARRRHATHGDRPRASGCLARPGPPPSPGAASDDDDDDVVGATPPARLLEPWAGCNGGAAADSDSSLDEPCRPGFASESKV
# [4] = target: T3, human recombinant β2 receptors (Homo sapiens, UniProt P07550); assay: Intrinsic activity assessment (β2), cAMP production in CHO cells; type: cell-based; conditions: relative to procaterol, read-out: intrinsic activity (% response relative to procaterol-induced cAMP increase)
# T3 sequence (P07550 whole entry): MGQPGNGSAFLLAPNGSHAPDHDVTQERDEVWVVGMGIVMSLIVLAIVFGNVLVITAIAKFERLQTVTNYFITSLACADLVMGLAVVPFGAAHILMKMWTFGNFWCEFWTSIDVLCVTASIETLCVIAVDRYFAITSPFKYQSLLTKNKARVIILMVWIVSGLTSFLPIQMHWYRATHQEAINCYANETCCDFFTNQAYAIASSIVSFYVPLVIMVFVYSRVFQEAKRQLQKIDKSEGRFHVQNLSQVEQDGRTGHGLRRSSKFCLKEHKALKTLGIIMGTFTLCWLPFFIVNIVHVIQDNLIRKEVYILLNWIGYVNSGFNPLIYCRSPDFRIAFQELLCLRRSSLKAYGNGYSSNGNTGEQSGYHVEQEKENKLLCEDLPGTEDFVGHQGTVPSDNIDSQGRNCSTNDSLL
# [5] = target: T3, human recombinant β2 receptors; assay: β2 radioligand binding assay
# [6] = Stability in aqueous buffered solutions (HPLC assay); type: physicochemical
# Method: Stability in Aqueous Buffered Solutions
# Solution Preparations: For each test compound, the following solutions are prepared.
# • Solution A is prepared from ˜30 mg of the test compound in 150 mL of 0.005 M citrate buffer, pH 5.0 (˜0.2 mg/mL). • Solution B is prepared as follows: approximately 30 mL aliquot of Solution A is transferred to a separated container and the pH of the solution is adjusted to pH 3.0 with 1 N HCl (˜0.2 mL). • Solution C is prepared as follows: approximately 30 mL aliquot of Solution A is transferred to a separated container and the pH of the solution is adjusted to pH ˜8.0 with 1 N NaOH (˜0.2 mL). • Note: Because the volume of 1 N HCl or 1 N NaOH used for adjusting pH was negligible, the concentration of test compound in Solutions A, B and C were the same.
# Storage Scheme • As soon as the above solutions were prepared, aliquots of each solution were transferred into 11 vials, of which 9 vials are stored at −20° C., and one each is stored at 30° C. and 40° C., respectively. • At each interval listed below, two vials are removed from −20° C. storage, and stored at 30° C. and 40° C., respectively. • The corresponding weeks under the storage condition (30° C. or 40° C.) are shown in the table below.
# On Week 12, the last vial stored at −20° C. is removed and warmed up to the room temperature, which is the Day 0 Solution.
# Sample Analysis: On Week 12, all solutions are assayed by an HPLC method using the Day 0 Solution at pH 5 as a standard solution. The test compounds were assayed by HPLC with UV detection (refer to Table 1 for method conditions).
compound,measurement,setting,value
"CC(=O)Nc1cc([C@H](O)CN[C@H](C)Cc2ccc(O)cc2)ccc1O [Example 1, N-[2-hydroxy-5-[(1S)-1-hydroxy-2-[[(1R)-2-(4-hydroxyphenyl)-1-methylethyl]amino]ethyl]phenyl]acetamide]",melting point,,97 to 100 °C
same,EC50,[1]; isolated guinea pig trachea,120 nM
same,β1/β2 functional ratio,[1]; ratio of β1 to β2 functional EC50,> 250
same,activation at 30 µM,[2],32%
same,inhibition at 20 µM,"[3]; at a concentration of 20 μM, read-out: inhibition of specific binding, β1 receptor",30%
same,Ki,"[3]; displacement of [125I]-cyanopidolol, CHO cells, read-out: Ki for the β1 receptor",> 20000 nM
same,Emax,[4],71%
same,Ki,"[5]; displacement of [3H]-CGP-12177, CHO cells, read-out: Ki for the β2 receptor",2210 nM
same,β1/β2 binding ratio,[5]; ratio of β1 to β2 binding Ki,> 9
same,% of Initial Concentration,"[6]; pH 3.0, 30° C., 0 wk",99.46%
same,% of Initial Concentration,"[6]; pH 3.0, 30° C., 1 wk",100.03%
same,% of Initial Concentration,"[6]; pH 3.0, 30° C., 2 wk",99.84%
same,% of Initial Concentration,"[6]; pH 3.0, 30° C., 4 wk",101.41%
same,% of Initial Concentration,"[6]; pH 3.0, 30° C., 8 wk",100.33%
same,% of Initial Concentration,"[6]; pH 3.0, 30° C., 12 wk",100.29%
same,% of Initial Concentration,"[6]; pH 3.0, 40° C., 0 wk",99.46%
same,% of Initial Concentration,"[6]; pH 3.0, 40° C., 1 wk",99.89%
same,% of Initial Concentration,"[6]; pH 3.0, 40° C., 2 wk",100.11%
same,% of Initial Concentration,"[6]; pH 3.0, 40° C., 4 wk",99.54%
same,% of Initial Concentration,"[6]; pH 3.0, 40° C., 8 wk",99.18%
same,% of Initial Concentration,"[6]; pH 3.0, 40° C., 12 wk",97.17%
same,time found to be very stable in aqueous solution,"[6]; pH 3 or 5, stored at 30° C.",at least 12 weeks
same,% of Initial Concentration,"[6]; pH 5.0, 30° C., 0 wk",100.25%
same,% of Initial Concentration,"[6]; pH 5.0, 30° C., 1 wk",101.22%
same,% of Initial Concentration,"[6]; pH 5.0, 30° C., 2 wk",101.07%
same,% of Initial Concentration,"[6]; pH 5.0, 30° C., 4 wk, flagged out of trend",112.52* %
same,% of Initial Concentration,"[6]; pH 5.0, 30° C., 8 wk",107.12%
same,% of Initial Concentration,"[6]; pH 5.0, 30° C., 12 wk",107.75%
same,% of Initial Concentration,"[6]; pH 5.0, 40° C., 0 wk",100.25%
same,% of Initial Concentration,"[6]; pH 5.0, 40° C., 1 wk",102.00%
same,% of Initial Concentration,"[6]; pH 5.0, 40° C., 2 wk",102.73%
same,% of Initial Concentration,"[6]; pH 5.0, 40° C., 4 wk",102.94%
same,% of Initial Concentration,"[6]; pH 5.0, 40° C., 8 wk, flagged out of trend",122.32* %
same,% of Initial Concentration,"[6]; pH 5.0, 40° C., 12 wk, flagged out of trend",112.61* %
same,% of Initial Concentration,"[6]; ~pH 8, 30° C., 0 wk",100.38%
same,% of Initial Concentration,"[6]; ~pH 8, 30° C., 1 wk",99.64%
same,% of Initial Concentration,"[6]; ~pH 8, 30° C., 2 wk",99.60%
same,% of Initial Concentration,"[6]; ~pH 8, 30° C., 4 wk",96.62%
same,% of Initial Concentration,"[6]; ~pH 8, 30° C., 8 wk, flagged out of trend",26.79* %
same,% of Initial Concentration,"[6]; ~pH 8, 30° C., 12 wk",89.93%
same,% of Initial Concentration,"[6]; ~pH 8, 40° C., 0 wk",100.38%
same,% of Initial Concentration,"[6]; ~pH 8, 40° C., 1 wk",97.44%
same,% of Initial Concentration,"[6]; ~pH 8, 40° C., 2 wk",93.75%
same,% of Initial Concentration,"[6]; ~pH 8, 40° C., 4 wk",86.72%
same,% of Initial Concentration,"[6]; ~pH 8, 40° C., 8 wk",72.25%
same,% of Initial Concentration,"[6]; ~pH 8, 40° C., 12 wk",61.36%
